This is an account of results in patent publication US9394281B2, “Substituted heteroaryl compounds and methods of use” (Calitor Sciences, LLC, priority 2014, dated 2016).

Structures are written as SMILES.

Data set [1] can be described thus: Compound stability in rat liver microsomes. Type of data set: in vitro ADME. Particulars: pH 7.4; for half-life at 5 μM: rat liver microsomes 0.5 mg protein/mL, compound 5 μM, NADPH 1.0 mM, 37° C., read-out: Rat T1/2; for CLint scaled at 5 μM: rat liver microsomes, in vivo CLint extrapolated. The method, then:
(§1) Human or rat liver microsomes incubations were conducted in duplicate in polypropylene tubes. The typical incubation mixtures consisted of human or rat liver microsomes (0.5 mg protein/mL), compounds of interest (5 μM) and NADPH (1.0 mM) in a total volume of 200 μL potassium phosphate buffer (PBS, 100 mM, pH 7.4). Compounds were dissolved in DMSO and diluted with PBS such that the final concentration of DMSO was 0.05%. The enzymatic reactions were commenced with the addition of […] after a 3-min preincubation and incubated in a water bath open to the air at 37° C. Reactions were terminated at various time points (0, 5, 10, 15, 30, 60 min) by adding equal volume of ice-cold acetonitrile. The samples were stored at […] until LC/MS/MS assays.
(§2) The concentrations of compounds in the incubation mixtures of human or rat liver microsomes were determined by a LC/MS/MS method. The ranges of the linearity in the concentration range were determined for each tested compounds.
(§3) A parallel incubation was performed using denatured microsomes as the negative control, and reactions were terminated at various time points (0, 15, 60 min) after incubation at 37° C.
(§4) Dextromethorphan (70 μM) was selected as the positive control, and reactions were terminated at various time points (0, 5, 10, 15, 30, 60 min) after incubation at 37° C. Both positive and negative control samples were included in each assay to ensure the integrity of the microsomal incubation system.
(§5) The concentrations of compounds in human or rat liver microsome incubations were plotted as a percentage of the relevant zero time point control for each reaction. The in vivo CLint were extrapolated (ref.: Naritomi, Y.; Terashita, S.; Kimura, S.; Suzuki, A.; Kagayama, A.; and Sugiyama, Y.; Prediction of human hepatic clearance from in vivo animal experiments and in vitro metabolic studies with liver microsomes from animals and humans. Drug Metab. Dispos., 2001, 29: 1316-1324).

The target in a further data set is JAK1 (h) (Homo sapiens (Human), UniProt P23458). As to the kind of experiment: JAK1 (h) kinase assay. Type of data set: biochemical. Here is the method:
(§6) Kinase assays can be performed by measurement of incorporation of γ-^33P ATP into immobilized myelin basic protein (MBP). High binding white 384 well plates (Greiner) are coated with MBP (Sigma #M-1891) by incubation of 60 μL/well of 20 μg/mL MBP in Tris-buffered saline (TBS; 50 mM Tris pH 8.0, 138 mM NaCl, 2.7 mM KCl) for 24 h at 4° C. Plates are washed 3× with 100 μL TBS. Kinase reactions are carried out in a total volume of 34 μL in kinase buffer (5 mM Hepes pH 7.6, 15 mM NaCl, 0.01% bovine gamma globulin (Sigma #I-5506), 10 mM MgCl2, 1 mM DTT, 0.02% TritonX-100). Compound dilutions are performed in DMSO and added to assay wells to a final DMSO concentration of 1%. Each data point is measured in duplicate, and at least two duplicate assays are performed for each individual compound determination. Enzyme is added to final concentrations of 10 nM or 20 nM, for example. A mixture of unlabeled ATP and γ-^33P ATP is added to start the reaction (2×10^6 cpm of γ-^33P ATP per well (3000 Ci/mmole) and 10 μM unlabeled ATP, typically. The reactions are carried out for 1 h at room temperature with shaking Plates are washed 7× with TBS, followed by the addition of 50 μL/well scintillation fluid (Wallac). Plates are read using a Wallac Trilux counter. This is only one format of such assays; various other formats are possible, as known to one skilled in the art.
The above assay procedure can be used to determine the IC50 for inhibition and/or the inhibition constant, Ki. The IC50 is defined as the concentration of compound required to reduce the enzyme activity by 50% under the condition of the assay. The IC50 value is estimated by preparing a 10 point curve using a ½ log dilution series (for example, a typical curve may be prepared using the following compound concentrations: 3 μM, 1 μM, 0.3 μM, 0.1 μM, 0.03 μM, 0.01 μM, 0.003 μM, 0.001 μM, 0.0003 μM, and 0 μM).
(§7) The kinase assays described herein were performed at Millipore UK Ltd, Dundee Technology Park, Dundee DD2 1SW, UK.

The nature of data set [2]: Compound stability in human liver microsomes. Type of data set: in vitro ADME. Particulars: for half-life at 5 μM / CLint scaled at 5 μM: pH 7.4; for half-life at 5 μM: read-out: Human T1/2; for CLint scaled at 5 μM: human liver microsomes, in vivo CLint extrapolated. The method, then:
as §1, §2, §3, §4, §5

Data set [3] is described as follows: Pharmacokinetics after intravenous and oral administration in rats. Type of data set: in vivo, rat. The note with it: iv dosing, 1 mg/kg; for AUC(0-t) / half-life / Vd: rat, plasma; for Vd: read-out: Vss. Here is the method:
The compounds disclosed herein are assessed in pharmacokinetic studies in mice, rats, dogs or monkeys. The compounds are administered as a water solution, 2% HPMC+1% TWEEN®80 in water solution, 5% DMSO+5% solutol in saline, 4% MC suspension or capsule. For the intravenous administration, the animals are generally given at 1 or 2 mg/kg dose. For the oral (p.o.) dosing, mice and rats are generally given 5 or 10 mg/kg dose, and dogs and monkeys are generally given 10 mg/kg dose. The blood samples (0.3 mL) are drawn at 0.25, 0.5, 1.0, 2.0, 3.0, 4.0, 6.0, 8.0, 12 and 24 h time points or 0.083, 0.25, 0.5, 1.0, 2.0, 4.0, 6.0, 8.0 and 24 h time points and centrifuged at 3,000 or 4000 rpm for 2 to 10 min. The plasma solutions are collected, and stored at −20° C. or −70° C. until analyzed by LC/MS/MS as described above.

For a further data set, the target named is Aurora-B (h) (Homo sapiens (Human), UniProt Q96GD4). As to the kind of experiment: Aurora-B (h) kinase assay. Type of data set: biochemical. Here is the method:
as §6, with “art. […]” for “art.”

The target of the next data set is FLT3 (h) (Homo sapiens (Human), UniProt P36888). As to the kind of experiment: FLT3 (h) kinase assay. Type of data set: biochemical. The method, then:
as §6, with “art. […]” for “art.”

In another data set the target is Aurora-A (h) (Homo sapiens (Human), UniProt O14965). As to the kind of experiment: Aurora-A (h) kinase assay. Type of data set: biochemical. Here is the method:
Kinase assays can be performed by measurement of incorporation of γ-^33P ATP into immobilized myelin basic protein (MBP). […] Plates are washed 3× with 100 μL TBS. Kinase reactions are carried out in a total volume of 34 μL in kinase buffer (5 mM Hepes pH 7.6, 15 mM NaCl, 0.01% bovine gamma globulin (Sigma #I-5506), 10 mM MgCl2, 1 mM DTT, 0.02% TritonX-100). Compound dilutions are performed in DMSO and added to assay wells to a final DMSO concentration of 1%. Each data point is measured in duplicate, and at least two duplicate assays are performed for each individual compound determination. Enzyme is added to final concentrations of 10 nM or 20 nM, for example.
The above assay procedure can be used to determine the IC50 for inhibition and/or the inhibition constant, Ki. The IC50 is defined as the concentration of compound required to reduce the enzyme activity by 50% under the condition of the assay.
as §7

A further data set addresses JAK2 (h) (Homo sapiens (Human), UniProt O60674). As to the kind of experiment: JAK2 (h) kinase assay. Type of data set: biochemical. The method, then: as §6, with “art. […]” for “art.”
The mark [4] stands for this setting: human liver microsomes 0.5 mg protein/mL, compound 5 μM, NADPH 1.0 mM, 37° C.

Chain of JAK1 (h) (P23458 whole entry): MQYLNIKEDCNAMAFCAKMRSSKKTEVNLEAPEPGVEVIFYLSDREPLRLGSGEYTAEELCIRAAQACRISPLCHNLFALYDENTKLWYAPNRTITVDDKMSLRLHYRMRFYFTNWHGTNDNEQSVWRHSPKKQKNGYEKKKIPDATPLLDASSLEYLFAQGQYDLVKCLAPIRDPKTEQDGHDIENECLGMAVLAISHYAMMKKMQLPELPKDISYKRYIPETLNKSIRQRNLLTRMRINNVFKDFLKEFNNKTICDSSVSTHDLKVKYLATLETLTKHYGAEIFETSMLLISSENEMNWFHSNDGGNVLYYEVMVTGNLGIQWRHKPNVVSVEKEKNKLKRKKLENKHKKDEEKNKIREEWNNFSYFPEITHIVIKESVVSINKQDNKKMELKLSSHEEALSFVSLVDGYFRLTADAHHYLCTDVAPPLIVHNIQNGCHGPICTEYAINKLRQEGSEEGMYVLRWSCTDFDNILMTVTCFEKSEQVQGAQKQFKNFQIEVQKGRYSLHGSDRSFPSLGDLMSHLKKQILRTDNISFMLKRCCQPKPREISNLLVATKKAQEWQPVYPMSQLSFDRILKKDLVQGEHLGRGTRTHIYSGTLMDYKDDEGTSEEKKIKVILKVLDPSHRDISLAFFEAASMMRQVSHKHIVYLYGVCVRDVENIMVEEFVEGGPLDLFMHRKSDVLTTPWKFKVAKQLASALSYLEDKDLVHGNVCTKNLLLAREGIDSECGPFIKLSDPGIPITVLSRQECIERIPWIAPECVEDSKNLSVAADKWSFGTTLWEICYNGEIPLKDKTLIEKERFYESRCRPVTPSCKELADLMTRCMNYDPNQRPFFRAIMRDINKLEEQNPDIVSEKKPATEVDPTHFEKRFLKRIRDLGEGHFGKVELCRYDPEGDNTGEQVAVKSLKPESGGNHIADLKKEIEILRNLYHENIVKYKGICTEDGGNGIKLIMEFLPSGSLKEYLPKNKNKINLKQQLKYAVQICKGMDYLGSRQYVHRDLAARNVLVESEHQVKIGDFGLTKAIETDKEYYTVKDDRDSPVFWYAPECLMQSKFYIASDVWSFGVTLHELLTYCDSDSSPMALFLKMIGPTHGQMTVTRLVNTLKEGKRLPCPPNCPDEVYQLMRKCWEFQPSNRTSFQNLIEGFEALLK
Chain of FLT3 (h) (P36888 27-993): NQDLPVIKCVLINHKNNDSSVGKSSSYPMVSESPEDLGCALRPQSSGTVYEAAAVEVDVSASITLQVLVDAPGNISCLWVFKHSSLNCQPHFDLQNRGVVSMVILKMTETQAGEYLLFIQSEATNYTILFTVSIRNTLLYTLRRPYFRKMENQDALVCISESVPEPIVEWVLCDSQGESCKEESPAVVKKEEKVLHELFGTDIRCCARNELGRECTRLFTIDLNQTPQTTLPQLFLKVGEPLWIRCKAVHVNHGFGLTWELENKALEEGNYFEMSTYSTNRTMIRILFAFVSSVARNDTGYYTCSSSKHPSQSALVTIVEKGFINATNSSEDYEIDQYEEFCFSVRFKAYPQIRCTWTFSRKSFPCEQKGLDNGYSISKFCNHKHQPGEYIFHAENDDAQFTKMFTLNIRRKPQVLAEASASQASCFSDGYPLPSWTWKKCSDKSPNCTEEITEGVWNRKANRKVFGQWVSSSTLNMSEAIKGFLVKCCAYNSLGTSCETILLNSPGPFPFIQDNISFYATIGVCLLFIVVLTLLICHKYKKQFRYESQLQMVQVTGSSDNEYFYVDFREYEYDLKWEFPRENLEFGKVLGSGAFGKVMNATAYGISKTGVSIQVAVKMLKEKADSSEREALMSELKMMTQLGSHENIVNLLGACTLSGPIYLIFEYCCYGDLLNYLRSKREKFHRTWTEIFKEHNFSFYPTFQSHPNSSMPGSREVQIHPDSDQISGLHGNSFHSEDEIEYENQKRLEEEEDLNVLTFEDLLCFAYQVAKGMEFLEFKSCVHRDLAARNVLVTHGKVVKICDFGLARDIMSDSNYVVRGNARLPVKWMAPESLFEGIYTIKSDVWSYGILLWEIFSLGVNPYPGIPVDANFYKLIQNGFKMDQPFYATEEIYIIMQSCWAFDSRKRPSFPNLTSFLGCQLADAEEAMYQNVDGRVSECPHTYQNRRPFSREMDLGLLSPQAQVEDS
Chain of Aurora-A (h) (O14965 whole entry): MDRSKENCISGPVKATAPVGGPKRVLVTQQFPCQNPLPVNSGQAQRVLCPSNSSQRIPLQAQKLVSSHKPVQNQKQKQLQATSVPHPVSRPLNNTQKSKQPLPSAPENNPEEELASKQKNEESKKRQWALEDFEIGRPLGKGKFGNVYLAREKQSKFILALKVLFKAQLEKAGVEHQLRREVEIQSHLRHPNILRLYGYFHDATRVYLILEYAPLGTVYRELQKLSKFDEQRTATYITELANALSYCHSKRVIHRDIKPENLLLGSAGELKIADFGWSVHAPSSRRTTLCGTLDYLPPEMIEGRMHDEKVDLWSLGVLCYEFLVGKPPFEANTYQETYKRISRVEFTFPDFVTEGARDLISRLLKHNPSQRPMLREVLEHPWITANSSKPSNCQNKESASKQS
Chain of Aurora-B (h) (Q96GD4 whole entry): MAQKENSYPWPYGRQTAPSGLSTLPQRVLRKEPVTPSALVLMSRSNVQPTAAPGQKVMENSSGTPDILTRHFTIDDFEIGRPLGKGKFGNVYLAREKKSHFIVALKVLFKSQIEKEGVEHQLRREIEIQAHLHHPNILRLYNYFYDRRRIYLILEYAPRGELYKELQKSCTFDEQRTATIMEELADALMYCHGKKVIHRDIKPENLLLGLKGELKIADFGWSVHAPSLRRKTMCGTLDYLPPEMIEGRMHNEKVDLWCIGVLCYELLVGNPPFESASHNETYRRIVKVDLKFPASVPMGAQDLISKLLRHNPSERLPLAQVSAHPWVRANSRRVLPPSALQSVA
Chain of JAK2 (h) (O60674 whole entry): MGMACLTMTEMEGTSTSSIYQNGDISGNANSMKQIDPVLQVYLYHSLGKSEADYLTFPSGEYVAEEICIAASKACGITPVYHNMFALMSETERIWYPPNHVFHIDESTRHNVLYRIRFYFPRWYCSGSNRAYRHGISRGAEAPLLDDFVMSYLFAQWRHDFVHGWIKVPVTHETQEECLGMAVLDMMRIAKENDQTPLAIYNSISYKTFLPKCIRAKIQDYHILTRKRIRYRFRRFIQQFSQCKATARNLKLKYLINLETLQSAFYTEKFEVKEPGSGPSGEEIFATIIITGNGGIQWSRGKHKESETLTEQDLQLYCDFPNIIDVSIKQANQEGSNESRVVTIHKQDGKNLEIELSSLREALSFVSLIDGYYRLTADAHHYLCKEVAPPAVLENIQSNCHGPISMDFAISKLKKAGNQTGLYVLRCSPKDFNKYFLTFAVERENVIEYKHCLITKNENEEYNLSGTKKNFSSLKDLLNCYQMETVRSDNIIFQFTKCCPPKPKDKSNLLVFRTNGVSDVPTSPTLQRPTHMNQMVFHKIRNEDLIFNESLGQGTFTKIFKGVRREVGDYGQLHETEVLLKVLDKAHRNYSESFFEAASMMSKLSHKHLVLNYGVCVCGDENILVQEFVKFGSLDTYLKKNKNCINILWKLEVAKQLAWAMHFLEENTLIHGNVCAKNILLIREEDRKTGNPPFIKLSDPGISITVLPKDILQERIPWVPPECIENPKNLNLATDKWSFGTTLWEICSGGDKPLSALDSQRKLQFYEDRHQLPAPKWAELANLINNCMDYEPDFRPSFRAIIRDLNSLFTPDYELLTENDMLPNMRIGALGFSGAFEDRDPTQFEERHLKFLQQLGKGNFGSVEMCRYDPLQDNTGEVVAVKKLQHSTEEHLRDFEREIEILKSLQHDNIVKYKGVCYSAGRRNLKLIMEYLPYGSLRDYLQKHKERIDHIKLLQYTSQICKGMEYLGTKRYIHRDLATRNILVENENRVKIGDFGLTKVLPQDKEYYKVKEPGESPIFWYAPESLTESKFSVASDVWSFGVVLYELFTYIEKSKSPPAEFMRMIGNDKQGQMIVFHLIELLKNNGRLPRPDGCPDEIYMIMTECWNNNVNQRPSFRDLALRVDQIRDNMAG

Usually CLint scaled stands for the rate of metabolic loss divided by the concentration. By IC50 is commonly meant the concentration needed to halve the response being measured. Low readings indicate higher potency, high ones lower potency. Usually AUC(0-t) stands for exposure summed from dosing to a finite time, without extrapolation to infinity. Read a high AUC(0-t) as high exposure. As to `Cn1cc(Nc2ncc(Cl)c(NC3COC4C(OCCO)COC34)n2)cn1` (stereo not drawn) [Ex. 5, 2-((6-((5-chloro-2-((l-methyl-1H-pyrazol-4-yl)amino)pyrimidin-4-yl)amino)hexahydrofuro[3,2-b]furan-3-yl)oxy)ethanol], in data set [1], the half-life at 5 μM came to 12.1 h and the CLint scaled at 5 μM was 3.42 mL/min/kg. For the same compound, the IC50 on JAK1 (h) came out at 61 nM. Moreover, in data set [2] (setting [4]), the “Human T1/2” value is on record as “∞”. In addition, in data set [3], the Cl/F was 25 mL/min/kg, the AUC(0-t) came out at 621 ng·h/mL, the half-life is 2.93 h and the Vd amounted to 3.02 L/kg. In addition, at Aurora-B (h), the concentration for half-maximal inhibition (IC50) was 50 nM. Also, at FLT3 (h), the IC50 turned out to be 57 nM.
On to `COC1COC2C(Nc3nc(Nc4cnn(C)c4)ncc3Cl)COC12` (stereo not drawn) [Ex. 6, 5-chloro-N^4-(6-methoxyhexahydrofuro[3,2-b]furan-3-yl)-N^2-(1-methyl-1H-pyrazol-4-yl)pyrimidine-2,4-diamine], for which, in data set [1], the half-life at 5 μM stood at 1.48 h and the CLint scaled at 5 μM is 28 mL/min/kg. Moreover, the half-life at 5 μM in data set [2] (setting [4]) is 1.52 h. In data set [2], the CLint scaled at 5 μM is 19 mL/min/kg. Moreover, in data set [3], the Cl/F came out at 20.8 mL/min/kg, the AUC(0-t) was 822 ng·h/mL, the half-life is 0.83 h and the Vd was determined as 1.39 L/kg.
`Cn1cc(Nc2ncc(Cl)c(NC3COC4C(N)COC34)n2)cn1` (stereo not drawn) [Ex. 7, N^4-(6-aminohexahydrofuro[3,2-b]furan-3-yl)-5-chloro-N^2-(1-methyl-1H-pyrazol-4-yl)pyrimidine-2,4-diamine]: at Aurora-A (h), the IC50 was found to be 99 nM.
`Cn1cc(Nc2ncc(Cl)c(NC3COC4C(NS(C)(=O)=O)COC34)n2)cn1` (stereo not drawn) [Ex. 8, N-(6-((5-chloro-2-((1-methyl-1H-pyrazol-4-yl)amino)pyrimidin-4-yl)amino)hexahydrofuro[3,2-b]furan-3-yl)methanesulfonamide]: the half-life at 5 μM was 1.64 h in data set [1] and 6.28 h in data set [2] (setting [4]). Further, the CLint scaled at 5 μM in data set [1] is 25.2 mL/min/kg; in data set [2] it was 4.61 mL/min/kg. Moreover, the IC50 was found to be 31 nM at JAK1 (h), 31 nM against Aurora-B (h), 51 nM on Aurora-A (h) and 11 nM on FLT3 (h). In addition, the Cl/F in data set [3] was determined as 63.7 mL/min/kg. Besides, in data set [3], the AUC(0-t) is 259 ng·h/mL. The compound also gave a half-life in data set [3] of 0.34 h. For the same compound, the Vd in data set [3] was found to be 1.39 L/kg.
Compound `Cc1cnc(Nc2cnn(C)c2)nc1NC1COC2C(O)COC12` (stereo not drawn) [Ex. 3, 6-((5-methyl-2-((1-methyl-1H-pyrazol-4-yl)amino)pyrimidin-4-yl)amino) hexahydrofuro[3,2-b]furan-3-ol] yielded an IC50 against JAK1 (h) of 78 nM.
`CN(c1nc(Nc2cnn(C)c2)ncc1Cl)C1COC2C(O)COC21` (stereo not drawn) [Ex. 1, 6-((5-chloro-2-((l-methyl-1H-pyrazol-4-yl)amino)pyrimidin-4-yl)(methyl)amino)hexahydrofuro[3,2-b]furan-3-ol]: in data set [1], the half-life at 5 μM stood at 20.6 h and the CLint scaled at 5 μM is 2.01 mL/min/kg. This compound showed an IC50 against JAK1 (h) of 261 nM. Besides, the half-life at 5 μM in data set [2] (setting [4]) is 32.8 h. Further, the CLint scaled at 5 μM in data set [2] was 0.88 mL/min/kg. Moreover, in data set [3], the Cl/F turned out to be 18.2 mL/min/kg, the AUC(0-t) was 929 ng·h/mL, the half-life is 1.2 h and the Vd was determined as 1.22 L/kg. Inhibition at JAK2 (h) was half-maximal at 689 nM (IC50).
